From patent US20230293529A1, “DOSING REGIMENS FOR N-((5-FLUORO-2,3-DIHYDROBENZOFURAN-4-YL)METHYL)-8-(2-METHYLPYRIDIN-3-YL)-[1,2,4]TRIAZOLO[4,3-C]PYRIMIDIN-5-AMINE, OR A PHARMACEUTICALLY ACCEPTABLE SALT THEREOF, FOR USE IN TREATING PRC2-MEDIATED DISEASES OR DISORDERS” (Novartis AG, priority 2020, published 2023) come the findings set out here.

A short description of data set [1]: Pharmacokinetic profile of MAK683 in sequential blood samples, Phase I/II study. In kind it is in vivo, human. The source says: (§1) This study is a multicenter, open label, study to establish the maximum tolerated dose (MTD) and/or recommended phase 2 dose (RP2D) and to evaluate the safety, antitumor activity and pharmacokinetic (PK) profile of MAK683 (Compound (1) of MAK683 (Compound (1) in subjects with advanced malignancies such as Diffuse Large B cell Lymphoma (DLBCL), nasopharyngeal carcinoma (NPC) or other advanced solid tumors for whom no further effective standard treatment is available. The patients will be administered MAK683 single agent orally until they experience unacceptable toxicity, progressive disease and/or treatment discontinuation at the discretion of the investigator or patient or withdrawal of consent. The phase I part plans to enroll patients with relapsed/refractory DLBCL, advanced/ metastatic nasopharyngeal carcinoma with presence of p16/CDKN2A gene and other solid tumors including castration-resistant prostate cancer, gastric cancer, OCCC, sarcoma. All patients enrolled in this part of the study will receive escalating oral doses of MAK683 in fasted condition, unless significant GI toxicity is observed, in which case dosing with moderate-fat meals may be assessed. The starting dose and regimen for the MAK683 first-in-man clinical study is about 10 mg QD. Escalation will continue to about 20 mg, about 40 mg, about 80 mg, about 120 mg, about 160 mg, about 160 mg, about 240 mg, about 300 mg, about 500 mg or about 800 mg or until the MTD is reached or a RP2D is established based on emerging data.
(§2) MAK683 was administered fasted once (QD) or twice daily (BID) on a continuous schedule in 28-day treatment cycles. The pharmacokinetic (PK) profile of MAK683 was assessed in sequential blood samples on Days 1, 8 and/or 15 of Cycles 1-6. MAK683 pharmacodynamic activity in Cycle 1, measured by change in H3K27me3, was evaluated in peripheral blood monocytes on Days 1, 8, and 15 by flow cytometry and in tumor biopsies at baseline and Day 15 by H-score.

Data set [2] relates to H3K27me3. Kind of data set: Pharmacodynamic activity: change in H3K27me3 in peripheral blood monocytes by flow cytometry. The data set is classed as in vivo, human. The protocol: as §2
On the technique in general: A flow cytometer gives signals particle by particle.

Data set [3] relates to H3K27me3. Kind of data set: Pharmacodynamic activity: H3K27me3 in tumor biopsies by H-score. The data set is classed as in vivo, human. The conditions noted are these: paired baseline-Day 15 tumor biopsies; diffuse large B-cell lymphoma (n=4) or sarcoma (n=6). How it is done: as §2
In data set [4] the test system is advanced malignancies (DLBCL, nasopharyngeal carcinoma, other advanced solid tumors). Kind of data set: Antitumor activity, overall response rate (ORR) in subjects with advanced malignancies. In kind it is in vivo, human. The conditions noted are these: local assessment per Cheson 2014, RECIST v1.1 and PCWG2.
Source text: as §1, with “Escalation will continue to about 20 mg, about 40 mg, about 80 mg, about 120 mg, about 160 mg, about 160 mg, about 240 mg, about 300 mg, about 500 mg or about 800 mg or until the MTD is reached or a RP2D is established based on emerging data.” left out

A short description of data set [5]: Safety, adverse events in Phase I/II study. The data set is classed as in vivo. The conditions noted are these: patients with advanced malignancies, oral MAK683.
Source text: as §1, with “Escalation will continue to about 20 mg, about 40 mg, about 80 mg, about 120 mg, about 160 mg, about 160 mg, about 240 mg, about 300 mg, about 500 mg or about 800 mg or until the MTD is reached or a RP2D is established based on emerging data.” left out

SMILES strings stand for the structures.

Broadly, the half-life is the time in which the quantity being followed falls by half. The term Tmax denotes the time from dosing to the highest level.

For the compound `Cc1ncccc1-c1cnc(NCc2c(F)ccc3c2CCO3)n2cnnc12` [MAK683, N-((5-fluoro-2,3-dihydrobenzofuran-4-yl)methyl)-8-(2-methylpyridin-3-yl)-[1,2,4]triazolo[4,3-c]pyrimidin-5-amine], the “PK exposure (Cmax and AUC) dose proportionality” value in data set [1] (800 mg QD) is “over-proportional”; in data set [1] (10-500 mg QD and 60-450 mg BID) it was “variable and broadly dose-proportional”. For the same compound, in data set [1] (after multiple doses), the “accumulation after multiple doses (Racc)” value is recorded as 0.8-2.3. For the same compound, the half-life in data set [1] (human, blood, oral, across cohorts, unchanged after multiple doses, read-out: Apparent terminal half-life (geometric mean)) was in the range of 150 to 312 min. Besides, the Tmax in data set [1] (human, blood, patients, oral, fasted, 10-800 mg QD or 60-450 mg BID, read-out: median Tmax) was roughly 1 h. Moreover, the Time to steady-state in data set [1] (patients, QD or BID continuous dosing) is on record as roughly 3 days. For the same compound, the “H3K27me3/H3 ratio change from baseline in peripheral monocytes” value in the data set on H3K27me3 [2] (Cycle 1, Days 1, 8, 15, across doses) was “substantial on-treatment reductions from baseline”. Also, the “Maximum percentage reduction of H3K27me3/H3 ratio, relation to exposure” value in the data set on H3K27me3 [2] (peripheral monocytes) was “proportional to cumulative MAK683 AUC”. In the data set on H3K27me3 [3], the “patients with H3K27me3 H-score reductions from baseline >40” value is 7/10. In addition, in data set [4], the “positive endpoint: improved overall response rate (ORR)” value was “met at least one of the above endpoints”. In addition, in data set [5], the adverse events entry was “mild to moderate and did not lead to discontinuation”.
